Literature values in patent publication US6821972B2, “3-heterocyclylpropanohydroxamic acid PCP inhibitors” (Pfizer Inc., priority 2001, dated 2004).
Non-standard residues stand in square brackets, D forms with d. Residues, ends and D or L forms follow the SMILES beside them. *: point of attachment. Sta = CC(C)C[C@H](N)[C@@H](O)CC(=O)O; Isovaleryl = CC(C)CC(=O)*

Experiments:
[1] = test system: PCP
[2] = test system: endothelial cell invasion of basement membrane
[3] = test system: keratinocyte migration; settings: collagen type I matrix, in vitro

## phosphate
[1]
  inhibitory to PCP at concentrations of 1-10 mM: inhibitory

## NCCCC[C@H](N)C(=O)O [lysine]
[1]
  inhibition of PCP (in words): inhibited

## CNC(=O)[C@H](Cc1ccccc1)NC(=O)[C@H](CC(C)C)[C@H](CSc1cccs1)C(=O)NO [BB94, (2S,3R)-5-methyl-3-{[(1S)-1-(methylcarbamoyl)-2-phenylethyl]carbamoyl}-2-[(2-thienylthio)methyl]hexanohydroxamic acid]
[2]
  inhibition of endothelial cell invasion: inhibits endothelial cell invasion of basement membrane

## CC(C)CC(=O)N[C@H](C(=O)N[C@H](C(=O)N[C@@H](CC(C)C)[C@@H](O)CC(=O)N[C@@H](C)C(=O)N[C@@H](CC(C)C)[C@@H](O)CC(=O)O)C(C)C)C(C)C [pepstatin A, reference compound] (Isovaleryl-VV[Sta]A[Sta]-OH)
[1]
  inhibition of PCP (in words): relatively strong inhibitors

## O[C@H](CS)[C@H](O)CS (racemic) [Dithiothreitol, reference compound]
[1]
  inhibitory to PCP at low concentrations: inhibitory at low concentrations

## N.N.O=S(=O)(O)O [ammonium sulfate]
[1]
  inhibitory to PCP at concentrations of 1-10 mM: inhibitory

## CCCCCCCCCCCCOS(=O)(=O)[O-].[Na+] [SDS, reference compound]
[1]
  inhibitory to PCP at low concentrations: inhibitory at low concentrations

## CNC(=O)[C@H](Cc1ccc(OC)cc1)NC(=O)[C@@H](CC(=O)NO)CC(C)C [SC44463]
[3]
  inhibition of keratinocyte migration: completely inhibited

## N=C(N)NCCC[C@H](N)C(=O)O [arginine]
[1]
  inhibition of PCP (in words): inhibited

## CC(C)C[C@H](NC(=O)[C@@H](NC(=O)N[C@@H](Cc1ccccc1)C(=O)O)[C@@H]1CCN=C(N)N1)C(=O)N[C@H](C=O)Cc1ccccc1 [chymostatin, reference compound]
[1]
  inhibition of PCP (in words): relatively strong inhibitors

## Tris-HCl
[1]; 0.2-0.5M
  inhibition of PCP activity by buffer: markedly inhibited activity

## concanavalin A
[1]
  inhibitory to PCP at low concentrations: inhibitory at low concentrations

B1: α2-Macroglobulin: "α2-Macroglobulin, ovostatin, and fetal bovine serum appear to at least partially inhibit PCP activity" (protein, UniProt P01023 24-1474, looked up)
Alpha-2-macroglobulin: SVSGKPQYMVLVPSLLHTETTEKGCVLLSYLNETVTVSASLESVRGNRSLFTDLEAENDVLHCVAFAVPKSSSNEEVMFLTVQVKGPTQEFKKRTTVMVKNEDSLVFVQTDKSIYKPGQTVKFRVVSMDENFHPLNELIPLVYIQDPKGNRIAQWQSFQLEGGLKQFSFPLSSEPFQGSYKVVVQKKSGGRTEHPFTVEEFVLPKFEVQVTVPKIITILEEEMNVSVCGLYTYGKPVPGHVTVSICRKYSDASDCHGEDSQAFCEKFSGQLNSHGCFYQQVKTKVFQLKRKEYEMKLHTEAQIQEEGTVVELTGRQSSEITRTITKLSFVKVDSHFRQGIPFFGQVRLVDGKGVPIPNKVIFIRGNEANYYSNATTDEHGLVQFSINTTNVMGTSLTVRVNYKDRSPCYGYQWVSEEHEEAHHTAYLVFSPSKSFVHLEPMSHELPCGHTQTVQAHYILNGGTLLGLKKLSFYYLIMAKGGIVRTGTHGLLVKQEDMKGHFSISIPVKSDIAPVARLLIYAVLPTGDVIGDSAKYDVENCLANKVDLSFSPSQSLPASHAHLRVTAAPQSVCALRAVDQSVLLMKPDAELSASSVYNLLPEKDLTGFPGPLNDQDNEDCINRHNVYINGITYTPVSSTNEKDMYSFLEDMGLKAFTNSKIRKPKMCPQLQQYEMHGPEGLRVGFYESDVMGRGHARLVHVEEPHTETVRKYFPETWIWDLVVVNSAGVAEVGVTVPDTITEWKAGAFCLSEDAGLGISSTASLRAFQPFFVELTMPYSVIRGEAFTLKATVLNYLPKCIRVSVQLEASPAFLAVPVEKEQAPHCICANGRQTVSWAVTPKSLGNVNFTVSAEALESQELCGTEVPSVPEHGRKDTVIKPLLVEPEGLEKETTFNSLLCPSGGEVSEELSLKLPPNVVEESARASVSVLGDILGSAMQNTQNLLQMPYGCGEQNMVLFAPNIYVLDYLNETQQLTPEIKSKAIGYLNTGYQRQLNYKHYDGSYSTFGERYGRNQGNTWLTAFVLKTFAQARAYIFIDEAHITQALIWLSQRQKDNGCFRSSGSLLNNAIKGGVEDEVTLSAYITIALLEIPLTVTHPVVRNALFCLESAWKTAQEGDHGSHVYTKALLAYAFALAGNQDKRKEVLKSLNEEAVKKDNSVHWERPQKPKAPVGHFYEPQAPSAEVEMTSYVLLAYLTAQPAPTSEDLTSATNIVKWITKQQNAQGGFSSTQDTVVALHALSKYGAATFTRTGKAAQVTIQSSGTFSSKFQVDNNNRLLLQQVSLPELPGEYSMKVTGEGCVYLQTSLKYNILPEKEEFPFALGVQTLPQTCDEPKAHTSFQISLSVSYTGSRSASNMAIVDVKMVSGFIPLKPTVKMLERSNHVSRTEVSSNHVLIYLDKVSNQTLSLFFTVLQDVPVRDLKPAIVKVYDYYETDEFAIAEYNAPCSKDLGNA
[1]
  inhibition of PCP (in words): at least partially inhibit

B2: ovostatin: "α2-Macroglobulin, ovostatin, and fetal bovine serum appear to at least partially inhibit PCP activity" (protein, UniProt P20740 37-1473, looked up)
Ovostatin: KEPEPQYVLMVPAVLQSDSPSQVCLQFFNLNQTISVRVVLEYDTINTTIFEKNTTTSNGLQCLNFMIPPVTSVSLAFISFTAKGTTFDLKERRSVMIWNMESFVFVQTDKPIYKPGQSVMFRVVALDFNFKPVQEMYPLIAVQDPQNNRIFQWQNVTSEINIVQIEFPLTEEPILGNYKIIVTKKSGERTSHSFLVEEYVLPKFDVTVTAPGSLTVMDSELTVKICAVYTYGQPVEGKVQLSVCRDFDSYGRCKKSPVCQSFTKDLDTDGCLSHILSSKVFELNRIGYKRNLDVKAIVTEKEQVCNLTATQSISITQVMSSLQFENVDHHYRRGIPYFGQIKLVDKDNSPISNKVIQLFVNNKNTHNFTTDINGIAPFSIDTSKIFDPELSLKALYKTSDQCHSEGWIEPSYPDASLSVQRLYSWTSSFVRIEPLWKDMSCGQKRMITVYYILNTEGYEHINIVNFYYVGMAKGKIVLTGEIKVNIQADQNGTFMIPLVVNEKMAPALRLLVYMLHPAKELVADSVRFSIEKCFKNKVQLQFSEKQMLTTSNVSLVIEAAANSFCAVRAVDKSMLLLKSETELSAETIYNLHPIQDLQGYIFNGLNLEDDPQDPCVSSDDIFHKGLYYRPLTSGLGPDVYQFLRDMGMKFFTNSKIRQPTVCTRETVRPPSYFLNAGFTASTHHVKLSAEVAREERGKRHILETIREFFPETWIWDIILINSTGKASVSYTIPDTITEWKASAFCVEELAGFGMSVPATLTAFQPFFVDLTLPYSIIHGEDFLVRANVFNYLNHCIKINVLLLESLDYQAKLISPEDDGCVCAKIRKSYVWNIFPKGTGDVLFSITAETNDDEACEEEALRNIRIDYRDTQIRALLVEPEGIRREETQNFLICMKDDVISQDVAIDLPTNVVEGSPRPSFSVVGDIMGTAIQNVHQLLQMPFGNGEQNMVLFAPNIYVLDYLDKTRQLSEDVKSKTIGYLVSGYQKQLSYKHPDGSYSTFGIRDKEGNTWLTAFVYKSFAEASRFIYIDDNVQAQTLIWLATKQKTDGCFQSTGILVNNAMKGGVENELSLSAYITIALLEAGHSMSHTVIRNAFYCLETASEKNITDIYTQALVAYAFCLAGKAEICESFLRELQKSAKEVDGSKYWEQNQRSAPEKSHLLDHVQSTDVEITSYVLLALLYKPNRSQEDLTKASAIVQWIIRQQNSYGGFASMQDTVVALQALAAYGAATYNSVTQNVIKINSKNTFEKVFTVNNENRLLLQQTPLPQVPGKYSLTVNGTGCVLIQTALRYNIHLPEGAFGFSLSVQTSNASCPRDQPGKFDIVLISSYTGKRSSSNMVIIDVKMLSGFVPVKSSLDQLIDDHTVMQVEYKKNHVLLYLGNILQKRRKEVTFSVEQDFVVTHPKPAPVQIYDYYETEEYAVAEYMSLCRGVVEEMG
[1]
  inhibition of PCP (in words): at least partially inhibit
